21 compounds from patent US20160214983A1, “3,7-DIAZABICYCLO[3.3.1]NONANE CARBOXAMIDES AS ANTITHROMBOTIC AGENTS” (COUNCIL OF SCIENTIFIC & INDUSTRIAL RESEARCH, priority 2013, published 2016) can be followed below.

Usually inhibition stands for the change of the read-out against control, counted positive when it falls.

Several values for one entry are separate records, joined by “and”; a condition that tells them apart may be missing. Identical values can stand only once.

One assay has as its system human platelets. As to the kind of experiment: Collagen induced platelet aggregation in human platelets (in vitro). The assay is classed as cell-based. To be noted: compound concentration 30 μM, n = 3; for inhibition at 30 µM: Homo sapiens, Platelet.
The test system of assay [1] is collagen plus epinephrine induced pulmonary thromboembolism. As to the kind of experiment: Collagen-epinephrine induced pulmonary thromboembolism in mice. The assay is classed as in vivo. The procedure: To assess the antithrombotic efficacy of compounds, mice were grouped into vehicle, aspirin and compound treated groups, and each group included ten animals. Pulmonary thromboembolism was induced by injecting a mixture of collagen (150 μg/ml) and adrenaline (50 μg/ml) into the tail vein to achieve final doses of collagen (1.5 mg/kg) and adrenaline (0.5 mg/kg) to induce hind limb paralysis or death.^11, 12 Number of test animals killed or paralyzed were evaluated (death/paralysis were employed as endpoint to evaluate antithrombotic agents). The percent protection was calculated by taking the ratio of number of test animals killed or paralyzed to that of total tested animals. Results have been reported as percentage protection, which represents protection against collagen and epinephrine induced thromboembolism and expressed as;
Percent Protection=[1−(Ptest/Pcontrol)]×100
Where, Ptest is the number of animals paralyzed/dead in test compound-treated group, and Pcontrol is the total number of animals paralyzed/dead in vehicle treated group. The percent protection refers to the number of animals in compound treated group that were prevented from paralysis/death.

Setting [2] is: Mus musculus, po, 1 h, read-out: Protection (%).

For `O=C(N[C@@H](Cc1ccccc1)C(=O)N1CC2CC(CN(Cc3ccccc3)C2)C1)OCc1ccccc1` [Compound 1y, Benzyl(2S)-1-(7-benzyl-3,7-diazabicyclo[3.3.1]nonan-3-yl)-1-oxo-3-phenylpropan-2-yl carbamate], the inhibition at 30 µM in the assay with human platelets amounted to 22 ± 5%. Besides, the inhibition in vivo at 30 µM, 30 µmol/kg in assay [1] (setting [2]) came out at 55%.
On the same counts, the results for `CC(C)(C)OC(=O)N1CC2CC(C1)CN(C(=O)[C@@H]1CCC(=O)N1Cc1ccc(Cl)cc1)C2` [Compound 1k, tert-butyl 7-((S)-1-(4-chlorobenzyl)-5-oxopyrrolidine-2-carbonyl)-3,7-diazabicyclo [3.3.1]nonane-3-carboxylate] are 6 ± 11% and 30%.
On the same counts, the results for `CC(C)(C)OC(=O)N1CC2CC(C1)CN(C(=O)[C@@H]1CCC(=O)N1Cc1ccccc1)C2` [Compound 1a, 7-(1-Benzyl-5-oxo-pyrrolidine-2-carbonyl)-3,7-diaza-bicyclo[3.3.1]nonane-3-carboxylic acid tert-butyl ester] are 6 ± 14% and 40%.
On the same counts, the results for `O=C([C@@H]1CCC(=O)N1Cc1c(Cl)cccc1Cl)N1CC2CC(CN(Cc3ccccc3)C2)C1` [Compound 1g, (5S)-5-(7-benzyl-3,7-diazabicyclo[3.3.1]nonane-3-carbonyl)-1-(2,6-dichlorobenzyl)pyrrolidin-2-one] are 57 to 86% and 40%.
Compound `CC(C)C[C@H](NC(=O)OCc1ccccc1)C(=O)N1CC2CC(CN(Cc3ccccc3)C2)C1` [Compound 1z, Benzyl(2S)-1-(7-benzyl-3,7-diazabicyclo[3.3.1]nonan-3-yl)-4-methyl-1-oxopentan-2-ylcarbamate] gave an inhibition at 30 µM with human platelets of 12 ± 10%. Also, the inhibition in vivo at 30 µM, 30 µmol/kg in assay [1] (setting [2]) worked out at 40%.
`O=C([C@@H]1CCC(=O)N1Cc1ccc(Cl)cc1)N1CC2CC(CN(Cc3ccccc3)C2)C1` [Compound 1h]: the inhibition at 30 µM in the assay on human platelets was 57 to 86%. In assay [1] (setting [2]), the inhibition in vivo at 30 µM, 30 µmol/kg came out at 30%.
On the same counts, the results for `Cc1ccc(CN2C(=O)CC[C@H]2C(=O)N2CC3CC(CN(C(=O)c4ccccc4)C3)C2)cc1` [Compound 1s, 5-(7-Benzoyl-3,7-diaza-bicyclo[3.3.1]nonane-3-carbonyl)-1-(4-methyl-benzyl)-pyrrolidin-2-one] are 20.5 ± 7.5% and 40%.
For `CC(=O)Oc1ccccc1C(=O)O` [Aspirin, reference compound], the inhibition in vivo at 170 µM, 170 µmol/kg in assay [1] (setting [2]) was determined as 40%. The “Protection (%)” value in assay [1] (mice, Aspirin at 170 μm (text: 170 μM/kg)) was 40 (at 170 μm) % and 40 (at %.
In turn, `Cc1ccc(CN2C(=O)CC[C@H]2C(=O)N2CC3CC(CN(Cc4ccc(Cl)cc4)C3)C2)cc1` [Compound 1w, (5S)-5-(7-(4-chlorobenzyl)-3,7-diazabicyclo[3.3.1]nonane-3-carbonyl)-1-(4-methylbenzyl)pyrrolidin-2-one] displayed an inhibition at 30 µM with human platelets of 57 to 86%. Further, the inhibition in vivo at 30 µM, 30 µmol/kg in assay [1] (setting [2]) was 35%.
On the same counts, the results for `O=C(c1ccccc1)N1CC2CC(C1)CN(C(=O)[C@@H]1CCC(=O)N1Cc1ccccc1Br)C2` [Compound 1q, 5-(7-Benzoyl-3,7-diaza-bicyclo[3.3.1]nonane-3-carbonyl)-1-(2-bromo-benzyl)-pyrrolidin-2-one] are 25.6 ± 3.55% and 60%.
On the same counts, the results for `COc1ccc(CN2C(=O)CC[C@H]2C(=O)N2CC3CC(CN(C(=O)OC(C)(C)C)C3)C2)cc1` [Compound 1m, tert-butyl-7-((S)-1-(4-methoxybenzyl)-5-oxopyrrolidine-2-carbonyl)-3,7-diazabicyclo[3.3.1]nonane-3-carboxylate] are 10 ± 3% and 45%.
The compound `CC(C)(C)OC(=O)N1CC2CC(C1)CN(C(=O)[C@@H]1CCC(=O)N1Cc1c(Cl)cccc1Cl)C2` [Compound 1l, tert-butyl 7-((S)-1-(2,6-dichlorobenzyl)-5-oxopyrrolidine-2-carbonyl)-3,7-diazabicyclo [3.3.1]nonane-3-carboxylate] showed an inhibition at 30 µM with human platelets of 3 ± 3%. In assay [1] (setting [2]), the inhibition in vivo at 30 µM, 30 µmol/kg stood at 30%.
In the assay with human platelets, `O=C([C@@H]1CCC(=O)N1Cc1ccccc1)N1CC2CC(CN(Cc3ccccc3)C2)C1` [Compound 1c, 1-Benzyl-5-(7-benzyl-3,7-diaza-bicyclo[3.3.1]nonane-3-carbonyl)-pyrrolidin-2-one] showed an inhibition at 30 µM of 44 ± 13%. Also, the inhibition in vivo at 30 µM, 30 µmol/kg in assay [1] (setting [2]) stood at 30%.
For the compound `CC(C)(C)OC(=O)N1CC2CC(C1)CN(C(=O)[C@@H]1CCC(=O)N1Cc1ccc(C#N)cc1)C2` [Compound 1j, tert-butyl-7-((S)-1-(4-cyanobenzyl)-5-oxopyrrolidine-2-carbonyl)3,7diazabicyclo[3.3.1]nonane-3-carboxylate], in the assay with human platelets, at 30 µM the inhibition was 11 ± 3%. In addition, the inhibition in vivo at 30 µM, 30 µmol/kg in assay [1] (setting [2]) was determined as 55%.
On the same counts, the results for `Cc1ccc(CN2C(=O)CC[C@H]2C(=O)N2CC3CC(CN(Cc4ccc(Br)cc4)C3)C2)cc1` [Compound 1v, (5S)-5-(7-(4-bromobenzyl)-3,7-diazabicyclo[3.3.1]nonane-3-carbonyl)-1-(4-methylbenzyl)pyrrolidin-2-one] are 57 to 86% and 50%.
On the same counts, the results for `Cc1ccc(CN2C(=O)CC[C@H]2C(=O)N2CC3CC(C2)CN(S(=O)(=O)c2ccc(C)cc2)C3)cc1` [Compound 1t, 1-(4-Methyl-benzyl)-5-[7-(toluene-4-sulphonyl)-3,7-diaza-bicyclo[3.3.1]nonane-3-carbonyl]-pyrrolidin-2-one] are 37.5 ± 10.5% and 40%.
On the same counts, the results for `O=C([C@@H]1CCC(=O)N1Cc1ccc(Br)cc1)N1CC2CC(CN(Cc3ccccc3)C2)C1` [Compound 1o, (5S)-5-(7-(4-benzyl)-3,7-diazabicyclo[3.3.1]nonane-3-carbonyl)-1-(4-bromobenzyl)pyrrolidin-2-one] are 57 to 86% and 40%.
Turning to `Cc1ccc(S(=O)(=O)N2C(=O)CC[C@H]2C(=O)N2CC3CC(CN(Cc4ccccc4)C3)C2)cc1` [Compound 1i, (5S)-5-(7-benzyl-3,7-diazabicyclo[3.3.1]nonane-3-carbonyl)-1-tosylpyrrolidin-2-one], in the assay with human platelets, testing at 30 µM gave an inhibition of 29 ± 1%. Further, the inhibition in vivo at 30 µM, 30 µmol/kg in assay [1] (setting [2]) was determined as 30%.
For `CC(C)(C)OC(=O)N1CC2CC(C1)CN(C(=O)[C@@H]1CCC(=O)N1Cc1ccccc1Br)C2` [Compound 1b, 7-[1-(2-Bromo-benzyl)-5-oxo-pyrrolidine-2-carbonyl]-3,7-diaza-bicyclo[3.3.1]nonane-3-carboxylic acid tert-butyl ester], the “Inhibition (%) of collagen induced platelet aggregation” value with human platelets was “Ns”. Further, in assay [1] (setting [2]), the inhibition in vivo at 30 µM, 30 µmol/kg was 50%.
As for `Cc1ccc(S(=O)(=O)N2CC3CC(CN(C(=O)[C@@H]4CCC(=O)N4Cc4ccccc4Br)C3)C2)cc1` [Compound 1r, 1-(2-Bromo-benzyl)-5-[7-(toluene-4-sulphonyl)-3,7-diaza-bicyclo[3.3.1]nonane-3-carbonyl]-pyrrolidin-2-one], the inhibition at 30 µM in the assay on human platelets was determined as 16.8 ± 5.66%. Also, the inhibition in vivo at 30 µM, 30 µmol/kg in assay [1] (setting [2]) was 55%.
On the same counts, the results for `CC(C)[C@H](NC(=O)OCc1ccccc1)C(=O)N1CC2CC(CN(Cc3ccccc3)C2)C1` [Compound 1x, Benzyl(2S)-1-(7-benzyl-3,7-diazabicyclo[3.3.1]nonan-3-yl)-3-methyl-1-oxobutan-2-yl carbamate] are 18 ± 4% and 20%.
